Assay results reported in patent US11026943B2, “Aminoquinoline derivatives and uses thereof” (UNIVERSITY OF DELHI, priority 2012, dated 2021).

Tests used:
LLC-PK-1 cells = assay: In vitro cytotoxicity to mammalian cells, LLC-PK-1; type: cell-based; conditions: Sus scrofa, LLC-PK1
Excerpt: (§1) Med. Chem. 2005, 13, 4458; Khan, I. A. Lipids 2004, 37, 169].

[1] = tested on: CQ-resistant (W2 clone) strain of P. falciparum; assay: In vitro antimalarial activity, CQ-resistant strain; type: cell-based, Plasmodium falciparum; conditions: for IC50: Plasmodium falciparum, CQ-resistant W2 clone, read-out: P. falciparum (W2 Clone) IC50; for P. falciparum (W2 Clone) S.I.: selectivity index = IC50 cytotoxicity to Vero cells / IC50 antimalarial
Excerpt: as §1

[2] = tested on: CQ-sensitive (D6 clone) strain of P. falciparum; assay: In vitro antimalarial activity, CQ-sensitive strain; type: cell-based, Plasmodium falciparum; conditions: for IC50: Plasmodium falciparum, CQ-sensitive D6 clone, read-out: P. falciparum (D6 Clone) IC50; for P. falciparum (D6 Clone) S.I.: selectivity index = IC50 cytotoxicity to Vero cells / IC50 antimalarial; for activity fold higher than artemisinin: CQ-sensitive strain
Excerpt: as §1

VERO cells = assay: In vitro cytotoxicity to mammalian cells, VERO; type: cell-based; conditions: for IC50: Chlorocebus sabaeus, Vero, in vitro cytotoxicity to mammalian cells
Excerpt: as §1

HepG2 cells = assay: In vitro cytotoxicity to mammalian cells, HepG2; type: cell-based; conditions: Homo sapiens
Excerpt: as §1

parasitemia = assay: In-vivo antimalarial activity in mice; conditions: mice; for parasitemia suppression / % Parasitemia suppression Day 5: day 5; for parasitemia suppression / survival rate / apparent toxicity: 30 mg/kg for 3 days post infection; for survival rate / Survival (animals that survived day 28/total animals in group): day 28; for Cure (number of mice without parasitemia till day 28 post-infection) / MST (mean survival time) / Remarks (toxicity) / % Parasitemia suppression Day 5 / % Parasitemia suppression Day 7 / Survival (animals that survived day 28/total animals in group) / Day of Death: PO; for Day of Death: per animal
[3] = 3.3 mg/kg × 3 days post-infection
[4] = 10 mg/kg × 3 days post-infection
[5] = 30 mg/kg × 3 days post-infection

## Cc1cc(NCCNc2ccnc3cc(Cl)ccc23)nc(Cl)n1 [10a]
LLC-PK-1 cells
  IC50: > 60 µM
[1]
  IC50: 340 nM
  P. falciparum (W2 Clone) S.I.: (>176)
[2]
  IC50: 210 nM
  P. falciparum (D6 Clone) S.I.: (>285)
VERO cells
  IC50: > 60 µM
HepG2 cells
  IC50: > 60 µM

## Cc1cc(NCCCNc2ccnc3cc(Cl)ccc23)nc(Cl)n1 [10b]
LLC-PK-1 cells
  IC50: > 60 µM
[1]
  IC50: 740 nM
  P. falciparum (W2 Clone) S.I.: (>80)
[2]
  IC50: 350 nM
  P. falciparum (D6 Clone) S.I.: (>170)
VERO cells
  IC50: > 60 µM
HepG2 cells
  IC50: > 60 µM

## Cc1cc(NCCCCNc2ccnc3cc(Cl)ccc23)nc(Cl)n1 [10c]
LLC-PK-1 cells
  IC50: > 60 µM
[1]
  IC50: 690 nM
  P. falciparum (W2 Clone) S.I.: (>87)
[2]
  IC50: 151 nM
  P. falciparum (D6 Clone) S.I.: (>398)
VERO cells
  IC50: > 60 µM
HepG2 cells
  IC50: > 60 µM

## Cc1cc(NCCCCCCNc2ccnc3cc(Cl)ccc23)nc(Cl)n1 [10d]
LLC-PK-1 cells
  IC50: 14.8 µM
[1]
  IC50: 544 nM
  P. falciparum (W2 Clone) S.I.: 27.2
[2]
  IC50: 469 nM
  P. falciparum (D6 Clone) S.I.: 73.7
VERO cells
  IC50: 34.6 µM
HepG2 cells
  IC50: 9.3 µM

## Cc1cc(Cl)nc(NCCNc2ccnc3cc(Cl)ccc23)n1 [11a]
LLC-PK-1 cells
  IC50: 41.6 µM
[1]
  IC50: 910 nM
  P. falciparum (W2 Clone) S.I.: 47.2
[2]
  IC50: 270 nM
  P. falciparum (D6 Clone) S.I.: 159.2
VERO cells
  IC50: 43 µM
HepG2 cells
  IC50: 43 µM

## Cc1cc(Cl)nc(NCCCNc2ccnc3cc(Cl)ccc23)n1 [11b]
LLC-PK-1 cells
  IC50: > 60 µM
[1]
  IC50: 1240 nM
  P. falciparum (W2 Clone) S.I.: (>48)
[2]
  IC50: 270 nM
  P. falciparum (D6 Clone) S.I.: (>222)
VERO cells
  IC50: > 60 µM
HepG2 cells
  IC50: > 60 µM

## Cc1cc(Cl)nc(NCCCCNc2ccnc3cc(Cl)ccc23)n1 [11c]
LLC-PK-1 cells
  IC50: > 60 µM
[1]
  IC50: 664 nM
  P. falciparum (W2 Clone) S.I.: (>90)
[2]
  IC50: 196 nM
  P. falciparum (D6 Clone) S.I.: (>306)
VERO cells
  IC50: > 60 µM
HepG2 cells
  IC50: 39.8 µM

## Cc1cc(Cl)nc(NCCCCCCNc2ccnc3cc(Cl)ccc23)n1 [11d]
LLC-PK-1 cells
  IC50: 23.4 µM
[1]
  IC50: 568 nM
  P. falciparum (W2 Clone) S.I.: 97.8
[2]
  IC50: 165 nM
  P. falciparum (D6 Clone) S.I.: 336.9
VERO cells
  IC50: 55.6 µM
HepG2 cells
  IC50: 8.1 µM

## Cc1cc(NCCNc2ccnc3cc(Cl)ccc23)nc(N2CCCCC2)n1 [12a, N-(7-chloro-quinolin-4-yl)-N′-(6-methyl-2-piperidin-1-yl-pyrimidin-4-yl)-ethane-1,2-diamine]
other
  melting point: 177 to 179 °C

## Cc1cc(NCCCNc2ccnc3cc(Cl)ccc23)nc(N2CCCCC2)n1 [12b, N-(7-Chloro-quinolin-4-yl)-N′-(6-methyl-2-piperidin-1-yl-pyrimidin-4-yl)-propane-1,3-diamine]
LLC-PK-1 cells
  IC50: > 60 µM
[1]
  IC50: 211 nM
  P. falciparum (W2 Clone) S.I.: (>284)
[2]
  IC50: 26 nM
  P. falciparum (D6 Clone) S.I.: (>2300)
VERO cells
  IC50: > 60 µM
HepG2 cells
  IC50: > 60 µM

## Cc1cc(NCCCCNc2ccnc3cc(Cl)ccc23)nc(N2CCCCC2)n1 [12c, N-(7-Chloro-quinolin-4-yl)-N′-(6-methyl-2-piperidin-1-yl-pyrimidin-4-yl)-butane-1,4-diamine]
other
  melting point: 187 to 189 °C
LLC-PK-1 cells
  IC50: > 60 µM
[1]
  IC50: 82 nM
  P. falciparum (W2 Clone) S.I.: (>730)
[2]
  IC50: 21 nM
  P. falciparum (D6 Clone) S.I.: (>2857)
VERO cells
  IC50: > 60 µM
HepG2 cells
  IC50: > 60 µM

## Cc1cc(NCCCCCCNc2ccnc3cc(Cl)ccc23)nc(N2CCCCC2)n1 [12d, N-(7-Chloro-quinolin-4-yl)-N′-(6-methyl-2-piperidin-1-yl-pyrimidin-4-yl)-hexane-1,6-diamine]
other
  melting point: 97 to 99 °C
LLC-PK-1 cells
  IC50: < 6.7 µM
[1]
  IC50: 128 nM
  P. falciparum (W2 Clone) S.I.: 73.4
[2]
  IC50: 66 nM
  P. falciparum (D6 Clone) S.I.: 142.4
[2]; ratio of IC50 for cytotoxicity to Vero cells and IC50 for antimalarial activity
  selectivity index of antimalarial activity: considerably high
VERO cells
  IC50: 9.4 µM
VERO cells; all the three cell lines (VERO, LLC-PK-1, and HepG2)
  toxicity to cell lines: showed toxicity
HepG2 cells
  IC50: < 6.7 µM

## Cc1cc(NCCNc2ccnc3cc(Cl)ccc23)nc(N2CCOCC2)n1 [12e, N-(7-Chloro-quinolin-4-yl)-N′-(6-methyl-2-morpholin-4-yl-pyrimidin-4-yl)-ethane-1,2-diamine]
other
  melting point: 165 to 167 °C
LLC-PK-1 cells
  IC50: > 60 µM
[1]
  IC50: 120 nM
  P. falciparum (W2 Clone) S.I.: (>500)
[2]
  IC50: 25 nM
  P. falciparum (D6 Clone) S.I.: (>2400)
VERO cells
  IC50: > 60 µM
HepG2 cells
  IC50: > 60 µM

## Cc1cc(NCCCNc2ccnc3cc(Cl)ccc23)nc(N2CCOCC2)n1 [12f, N-(7-Chloro-quinolin-4-yl)-N′-(6-methyl-2-morpholin-4-yl-pyrimidin-4-yl)-propane-1,3-diamine]
other
  melting point: 165 to 167 °C
LLC-PK-1 cells
  IC50: 35.1 µM
[1]
  IC50: 58 nM
  P. falciparum (W2 Clone) S.I.: (>1034)
[2]
  IC50: 22 nM
  P. falciparum (D6 Clone) S.I.: (>2727)
VERO cells
  IC50: > 60 µM
HepG2 cells
  IC50: 26.1 µM

## Cc1cc(NCCCCNc2ccnc3cc(Cl)ccc23)nc(N2CCOCC2)n1 [12g, N-(7-Chloro-quinolin-4-yl)-N′-(6-methyl-2-morpholin-4-yl-pyrimidin-4-yl)-butane-1,4-diamine]
other
  melting point: 214 to 216 °C

## Cc1cc(NCCNc2ccnc3cc(Cl)ccc23)nc(N2CCN(C)CC2)n1 [12i, N-(7-Chloro-quinolin-4-yl)-N′-[6-methyl-2-(4-methyl-piperazin-1-yl)-pyrimidin-4-yl]-ethane-1,2-diamine]
LLC-PK-1 cells
  IC50: > 60 µM
[1]
  IC50: 46 nM
  P. falciparum (W2 Clone) S.I.: (>1304)
parasitemia
  parasitemia suppression: 100%
  survival rate: 5/5
  apparent toxicity: No apparent toxicity
parasitemia; [3]
  Cure (number of mice without parasitemia till day 28 post-infection): 0/5
  MST (mean survival time): 19.2 days
  Remarks (toxicity): No apparent
  % Parasitemia suppression Day 5: 23.52%
  % Parasitemia suppression Day 7: 35.21%
  Survival (animals that survived day 28/total animals in group): 1/5
  Day of Death: 21/28/21/13/13
parasitemia; [4]
  Cure (number of mice without parasitemia till day 28 post-infection): 0/5
  MST (mean survival time): 21.4 days
  Remarks (toxicity): No apparent
  % Parasitemia suppression Day 5: 97.03%
  % Parasitemia suppression Day 7: 2.03%
  Survival (animals that survived day 28/total animals in group): 0/5
  Day of Death: 21/22/22/21/21
parasitemia; [5]
  Cure (number of mice without parasitemia till day 28 post-infection): 4/5
  MST (mean survival time): 28 days
  Remarks (toxicity): No apparent
  % Parasitemia suppression Day 5: 100.00%
  % Parasitemia suppression Day 7: 100.00%
  Survival (animals that survived day 28/total animals in group): 5/5
  Day of Death: 28/28/28/28/28
[2]
  activity fold higher than artemisinin: 2 fold
  IC50: 6 nM
  P. falciparum (D6 Clone) S.I.: (>10000)
VERO cells
  IC50: > 60 µM
HepG2 cells
  IC50: > 60 µM

## CCN1CCN(c2nc(C)cc(NCCCNc3ccnc4cc(Cl)ccc34)n2)CC1 [12m, N-(7-Chloro-quinolin-4-yl)-N′-[2-(4-ethyl-piperazin-1-yl)-6-methyl-pyrimidin-4-yl]-propane-1,3-diamine]
LLC-PK-1 cells
  IC50: > 60 µM
[1]
  IC50: 61 nM
  P. falciparum (W2 Clone) S.I.: (>983)
parasitemia
  parasitemia suppression: 100%
  survival rate: 4/5
  apparent toxicity: No apparent toxicity
parasitemia; [3]
  Cure (number of mice without parasitemia till day 28 post-infection): 0/5
  MST (mean survival time): 20.2 days
  Remarks (toxicity): No apparent
  % Parasitemia suppression Day 5: 20.12%
  % Parasitemia suppression Day 7: 19.09%
  Survival (animals that survived day 28/total animals in group): 0/5
  Day of Death: 17/21/21/21/21
parasitemia; [4]
  Cure (number of mice without parasitemia till day 28 post-infection): 0/5
  MST (mean survival time): 15.2 days
  Remarks (toxicity): No apparent
  % Parasitemia suppression Day 5: 73.89%
  % Parasitemia suppression Day 7: 27.14%
  Survival (animals that survived day 28/total animals in group): 0/5
  Day of Death: 7/21/20/7/21
parasitemia; [5]
  Cure (number of mice without parasitemia till day 28 post-infection): 1/5
  MST (mean survival time): 27.2 days
  Remarks (toxicity): No apparent
  % Parasitemia suppression Day 5: 100.00%
  % Parasitemia suppression Day 7: 100.00%
  Survival (animals that survived day 28/total animals in group): 4/5
  Day of Death: 28/28/28/28/24
[2]
  activity fold higher than artemisinin: 2 fold
  IC50: 6 nM
  P. falciparum (D6 Clone) S.I.: (>10000)
VERO cells
  IC50: > 60 µM
HepG2 cells
  IC50: > 60 µM

## COc1cccc2c1C(=O)c1c(O)c3c(c(O)c1C2=O)C[C@@](O)(C(=O)CO)C[C@@H]3O[C@H]1C[C@H](N)[C@H](O)[C@H](C)O1 [Doxorubicin]
LLC-PK-1 cells
  IC50: 1 µM
VERO cells
  IC50: 8.2 µM
HepG2 cells
  IC50: < 1 µM
